Measured values: patent US10508130B2, “Crystalline polymorph of 15B-hydroxy-osaterone acetate” (ASKA Pharmaceutical Co., Ltd., priority 2016, dated 2019)

Tests used:
[1] = Friction or pulverization stability (automatic mortar grinder, PXRD); assay type: physicochemical; settings: 50 mg pulverized one hour, pestle 124 g, 50 rpm; PXRD peak height ratio
Procedure: In an automatic mortar grinder (weight of pestle: 124 g, 50 rpm), 50 mg of a sample (the crystalline polymorphic form A or the crystalline polymorphic form B) was put, the sample was pulverized over one hour and sampled. A PXRD analysis of the sample was conducted to determine the change of a degree of crystallization. The degree of crystallization after one hour of the crystalline polymorphic form A was 46.8%, and that of the crystalline polymorphic form B was 22.2%. Thus, the crystalline polymorphic form A was stable to pulverization. Incidentally, the degree of crystallization was determined based on an intensity ratio (peak height) of a characteristic diffraction peak in the PXRD spectrum (for the crystalline polymorphic form A, a diffraction peak at 2θ=17.1°; for the crystalline polymorphic form B, a diffraction peak at 2θ=16.2°), and the change rate of crystallization degree was calculated.

[2] = Angle of repose (powder flow property); assay type: physicochemical; settings: for Angle of repose (°) Average: average of three measurements; for Degree of flow property: evaluated based on Japanese Pharmacopoeia, General Information (Powder Flow); for Angle of repose (°) First time: first measurement; for Angle of repose (°) Second time: second measurement; for Angle of repose (°) Third time: third measurement
Procedure: Probably due to being the prism crystal, the crystalline polymorphic form A of 15β-hydroxy-osaterone acetate is characterized by a high powder flow property and a small angle of repose. For example, the powdery crystalline polymorphic form A of 15β-hydroxy-osaterone acetate has an average angle of repose of, for example, about 30 to 38°, preferably about 32 to 37° (e.g., about 33 to 37°), and more preferably about 34 to 36°, when the angle of repose is measured three times in accordance with methods for angle of repose described in The Japanese Pharmacopoeia. Incidentally, the crystalline polymorphic form B of 15β-hydroxy-osaterone acetate has an average angle of repose of, for example, about 42 to 52° (e.g., about 44 to 50°, particularly about 45 to 47°) by the same measurement as above. The angle of repose can be evaluated as the following manner. A funnel (a glass funnel having a funnel diameter of 50 mm, a stem internal diameter of 7 mm, and a stem length of 40 mm) is provided, the height from the lower end of the funnel to a base surface (an upper surface of a cylinder having a diameter of 1.5 cm) is fixed to 4.5 cm, an excess amount of a powdery sample is dropped onto the center of the cylinder surface (the base surface) through the funnel, and an incident angle of the resulting accumulated powder is measured.
The height from a lower end of a funnel to a base surface (an upper surface of a cylinder having a diameter of 1.5 cm) was fixed to 4.5 cm, an excess amount of a powdery sample was dropped onto the center of the cylinder surface (the base surface) through the funnel. An incident angle (an angle of repose) of the resulting accumulated powder was measured. This operation was repeated three times, and the average value of the angle of repose was calculated.
In Table 1, the degree of flow property is evaluated based on Japanese Pharmacopoeia, General Information (G2 Solid-state Properties, Powder Flow), which is described about the relationship between the angle of repose and the flow property.

[3] = Pharmacokinetics in dog (oral capsule, plasma LC-MS/MS); assay type: in vivo; settings: female dogs, 0.3 mg/kg oral, gelatin capsule with lactose hydrate, plasma 15β-hydroxy-osaterone acetate
Procedure: For each sample of the crystalline polymorphic form A obtained in Example 1 and the crystalline polymorphic form B obtained in Comparative Example 1, the sample was mixed at a dose of 0.3 mg/kg with 100 mg of lactose hydrate (manufactured by DFE Pharma), and the mixture was filled with a gelatin capsule (manufactured by Matsuya Corporation, MM, size: No. 2) to prepare a capsule preparation. The capsule preparation containing the crystalline polymorphic form A was orally administered to a first female dog group (5 dogs), and the capsule preparation containing the crystalline polymorphic form B was orally administered to a second female dog group (5 dogs). The blood was sampled from each dog 0.5, 1, 2, 3, 4, 5, 7, 10, 24, 48, and 72 hours after oral administration, and the blood plasma from each sample was obtained by centrifugation. The concentration of 15β-hydroxy-osaterone acetate in each blood plasma was measured by an LC-MS/MS (liquid chromatography-tandem mass spectrometry) method, and a time to reach a maximum plasma concentration (Tmax) and a maximum plasma concentration (Cmax) were calculated.

[4] = Stability (stir-suspension) in mixed solvents; assay type: physicochemical; settings: for proportion maintaining crystal structure: stirred; for stability of crystal form to the solvents commonly used in production of preparations: acetone/heptane, acetone/water, ethanol/water mixed solvents
Procedure: To (1) an acetone/heptane mixed solvent (1:1), (2) an acetone/water mixed solvent (1:1), or (3) an ethanol/water mixed solvent (1:1) was added the crystalline polymorphic form A, and the mixture was stirred. One day after, the crystalline polymorphic form A maintained a crystal structure thereof at a proportion of 98% in the mixed solvent (1), 99% in the mixed solvent (2), and 100% in the mixed solvent (3). Three days after, the crystalline polymorphic form A maintained a crystal structure thereof at a proportion of 95% in the mixed solvent (1), 98% in the mixed solvent (2), and 99% in the mixed solvent (3). Even seven days after, the crystalline polymorphic form A maintained a crystal structure thereof at a proportion of 95% in the mixed solvent (1), 98% in the mixed solvent (2), and 99% in the mixed solvent (3).

[5] = Thermal stability test (storage at 100° C., purity by HPLC); assay type: physicochemical; settings: in air; for colour of crystal with the passage of time / colour of crystal on the seventh day after storage: 100° C.; for colour of crystal with the passage of time: after seventh day up to 28 days
Procedure: The crystalline polymorphic form A obtained in Example 1 and the crystalline polymorphic form B obtained in Comparative Example 1 were each stored at a temperature of 100° C. for 28 days (storage condition: in a thermostatic bath, in air). During the storage, the crystals were sampled every predetermined time, and the purity of 15β-hydroxy-osaterone acetate in each sample was measured by HPLC.

SMILES | degree of crystallization after one hour [1] [%] | Angle of repose (°) Average [2] [°] | Degree of flow property [2] | Angle of repose (°) First time [2] [°] | Angle of repose (°) Second time [2] [°] | Angle of repose (°) Third time [2] [°] | Tmax (time to reach a maximum plasma concentration) [3] [h] | stability of crystal form to the solvents commonly used in production of preparations [4] | colour of crystal with the passage of time [5] | colour of crystal on the seventh day after storage [5] | also measured
CC(=O)O[C@]1(C(C)=O)C[C@@H](O)[C@H]2[C@@H]3C=C(Cl)C4=CC(=O)OC[C@]4(C)[C@H]3CC[C@@]21C [Crystalline polymorphic form A, 17α-acetoxy-6-chloro-15β-hydroxy-2-oxapregna-4,6-diene-3,20-dione] | 46.8 | 35 | Good | 36 | 33 | 38 | 13.8 ± 8.33 | highly stable | maintained light brown | light brown | Cmax (maximum plasma concentration) [3]: 84.2 ± 29.06 ng/mL; proportion maintaining crystal structure ([4]; acetone/heptane mixed solvent (1:1), one day after): 98%; proportion maintaining crystal structure ([4]; acetone/heptane mixed solvent (1:1), seven days after): 95%; proportion maintaining crystal structure ([4]; acetone/heptane mixed solvent (1:1), three days after): 95%; proportion maintaining crystal structure ([4]; acetone/water mixed solvent (1:1), one day after): 99%; proportion maintaining crystal structure ([4]; acetone/water mixed solvent (1:1), seven days after): 98%; proportion maintaining crystal structure ([4]; acetone/water mixed solvent (1:1), three days after): 98%; proportion maintaining crystal structure ([4]; ethanol/water mixed solvent (1:1), one day after): 100%; proportion maintaining crystal structure ([4]; ethanol/water mixed solvent (1:1), seven days after): 99%; proportion maintaining crystal structure ([4]; ethanol/water mixed solvent (1:1), three days after): 99%; thermal stability (active ingredient content / purity of 15β-hydroxy-osaterone acetate by HPLC) ([5]; stored at 100° C. for 28 days, thermostatic bath, FIG. 5): only a few decreases in active ingredient content
CC(=O)O[C@]1(C(C)=O)C[C@@H](O)[C@H]2[C@@H]3C=C(Cl)C4=CC(=O)OC[C@]4(C)[C@H]3CC[C@@]21C [Crystalline polymorphic form B, 17α-acetoxy-6-chloro-15β-hydroxy-2-oxapregna-4,6-diene-3,20-dione, reference compound] | 22.2 | 46 | Poor | 51 | 39 | 48 | 5.8 ± 1.60 | unstable | turned brown | light brown | Cmax ([3]; female, dog, plasma, po, 0.3 mg/kg, read-out: Cmax (maximum plasma concentration)): 128 ± 19.2 ng/mL
